Source: PMC8465942, “Cyano- and Ketone-Containing Selenoesters as Multi-Target Compounds against Resistant Cancers” (Cancers, 2021)
Where “and” joins values, the source holds several entries; their conditions need not be identical. Equal entries are not always repeated. Entries after “also recorded” stand apart in the source; their conditions may differ. Marks after values point to notes of the source that are not given here.

Assays:
[1] = system: MDR Colo 320 adenocarcinoma cells; assay: Apoptosis induction (Annexin V-FITC / propidium iodide); format: cell-based, human; settings: 2 µM; for Cell Death (%) Treated Sample-Untreated Sample / Early Apoptosis (%) Treated Sample-Untreated Sample / Late Apoptosis (%) Treated Sample-Untreated Sample: 3 h induction; for Apoptosis Quotient (%): total apoptotic events relative to reference M627 (20 µM)
Procedure: The assay was carried out using an Annexin V-FITC Apoptosis Detection Kit Cat. No. PF 032 from Calbiochem (EMD Biosciences. Inc. La Jolla. CA), according to the manufacturer's instructions. […] The cell suspension was distributed into 1 mL aliquots (1 × 10^6 cells) into a 24-well microplate and incubated overnight at 37 °C, with 5% CO2. On the following day, the medium was removed and a fresh medium was added to the cells. The cells were incubated in the presence of Se-compounds for 3 h at 37 °C. […] After a 3 h induction period, the culture medium was removed, the cells were washed with PBS, and a fresh medium was added to the cells. The 24-well plates were incubated overnight at 37 °C, with 5% CO2. After the incubation, the supernatant was collected in a microfuge tube and 200 μL of 0.25 trypsin (Trypsin-Versene) was added to the wells until the cells detached from the surfaces of the wells. The cells were centrifuged at 2000× g for 2 min at room temperature, the supernatant was removed, and the cells were re-suspended in fresh serum-free medium. After this procedure, apoptosis assay was carried out according to the rapid protocol of the kit using Annexin V-FITC and propidium iodide staining. […] The data were analysed by FlowJo^TM software (BD Biosciences, San Jose, NJ, USA).

[2] = molecular target: ABCB1 (P-glycoprotein) in Colo 320 colonic adenocarcinoma cells (Homo sapiens, UniProt P08183); assay: ABCB1 inhibition, rhodamine 123 accumulation by flow cytometry; settings: for FAR (fluorescence activity ratio): rhodamine 123, FAR above 2 considered effective
ABCB1 (P-glycoprotein) in Colo 320 colonic adenocarcinoma cells, sequence (P08183 whole entry): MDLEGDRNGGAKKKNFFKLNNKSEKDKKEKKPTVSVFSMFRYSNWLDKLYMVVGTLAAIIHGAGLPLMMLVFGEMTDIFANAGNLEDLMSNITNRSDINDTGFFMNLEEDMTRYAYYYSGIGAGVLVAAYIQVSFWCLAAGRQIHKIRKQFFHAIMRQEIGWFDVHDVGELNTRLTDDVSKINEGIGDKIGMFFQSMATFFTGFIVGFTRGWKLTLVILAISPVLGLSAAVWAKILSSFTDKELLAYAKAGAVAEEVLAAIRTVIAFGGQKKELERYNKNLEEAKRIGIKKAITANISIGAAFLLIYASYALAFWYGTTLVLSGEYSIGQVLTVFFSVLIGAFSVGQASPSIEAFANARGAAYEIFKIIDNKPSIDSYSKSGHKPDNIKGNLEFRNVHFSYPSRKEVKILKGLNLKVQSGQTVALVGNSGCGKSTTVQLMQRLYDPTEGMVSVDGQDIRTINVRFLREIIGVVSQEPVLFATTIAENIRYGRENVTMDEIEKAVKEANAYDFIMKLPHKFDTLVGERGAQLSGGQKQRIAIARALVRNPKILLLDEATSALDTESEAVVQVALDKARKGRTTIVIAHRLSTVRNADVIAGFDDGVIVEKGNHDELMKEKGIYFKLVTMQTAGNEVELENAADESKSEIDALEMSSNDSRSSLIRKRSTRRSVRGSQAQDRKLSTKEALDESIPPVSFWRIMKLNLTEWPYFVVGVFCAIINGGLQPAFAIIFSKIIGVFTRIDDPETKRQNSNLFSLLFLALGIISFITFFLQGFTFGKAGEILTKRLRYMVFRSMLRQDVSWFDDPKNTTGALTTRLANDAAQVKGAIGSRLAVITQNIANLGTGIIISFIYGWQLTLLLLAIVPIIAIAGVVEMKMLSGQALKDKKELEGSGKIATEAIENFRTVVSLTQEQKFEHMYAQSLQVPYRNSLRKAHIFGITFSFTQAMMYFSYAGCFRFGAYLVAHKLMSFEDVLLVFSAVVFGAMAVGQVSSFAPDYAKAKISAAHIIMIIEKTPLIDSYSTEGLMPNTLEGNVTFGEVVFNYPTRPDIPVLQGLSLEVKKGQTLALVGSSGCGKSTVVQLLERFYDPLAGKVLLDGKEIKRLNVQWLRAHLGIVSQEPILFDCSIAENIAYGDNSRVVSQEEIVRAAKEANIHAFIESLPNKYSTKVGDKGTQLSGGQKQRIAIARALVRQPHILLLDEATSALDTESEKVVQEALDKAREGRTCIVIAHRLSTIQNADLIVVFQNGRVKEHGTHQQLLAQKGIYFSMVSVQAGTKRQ
Procedure: The inhibition of the ABCB1 multidrug efflux pump ABCB1 by the tested compounds was evaluated using flow cytometry, measuring the retention of rhodamine 123 by ABCB1 (P-glycoprotein) in Colo 320 colonic adenocarcinoma cells. Briefly, the cell number of colonic adenocarcinoma cells were adjusted to 2 × 10^6 cells/mL, re-suspended in serum-free RPMI-1640 medium in the case of colonic adenocarcinoma cells, and distributed in 0.5 mL aliquots into Eppendorf centrifuge tubes. The tested compounds were added at different concentrations (0.2 and 2 µM; from 1 and 10 mM stock solutions, respectively), and the samples were incubated for 10 min at room temperature. Tariquidar was applied as the positive control (0.2 µM final concentration), and DMSO was used as the solvent control (at 2 v/v%). Next, 10 µL (5.2 µM final concentration) of the fluorochrome rhodamine 123 (Sigma, St. Louis, MO, USA) was added to the samples and the cells were incubated for 20 min at 37 °C. After the incubation period, the cells were washed twice and re-suspended in 0.5 mL PBS for analysis. The fluorescence of the gated cell population was measured with a Partec CyFlow® flow cytometer (Partec, Münster, Germany). The percentage of the mean fluorescence intensity was calculated for the treated MDR cells as compared with the untreated cells. The results were obtained from a representative flow cytometry experiment in which at least 20,000 individual cells of the overall population were evaluated for the rhodamine 123 retained inside the cells. The fluorescence activity ratio (FAR) was calculated based on the following equation, which relates the measured fluorescence values: FAR=Colo320treated / Colo320control/Colo205treated / Colo205control
The parameters evaluated from flow cytometry experiments were: Forward Scatter Count (FSC, provides information about cell size); Side Scatter Count (SSC, proportional to cell granularity or internal complexity); FL-1 (Mean fluorescence of the cells), and Fluorescence Activity Ratio (FAR), which was calculated by the equation given above.

[3] = molecular target: T1, recombinant human P-gp membranes (Homo sapiens, UniProt P08183); assay: P-gp ATPase activity assay (Pgp-Glo); format: biochemical; settings: 25 µM; relative to basal activity
T1 construct: purchased Promega
T1 sequence (P08183 whole entry): as above
Procedure: P-glycoprotein ATPase activity was determined using the Pgp-Glo^TM Assay System (Promega, WI, USA). The assay was performed according to the manufacturer’s instructions. […] DMSO at 2% was applied as a solvent control. […] The reaction was stopped after adding 50 µL of ATP Detection Reagent. Then, the samples and controls were incubated at room temperature for 20 min. The emitted luciferase-generated luminescent signal was measured in a CLARIOstar Plus plate reader (BMG Labtech, UK) at 580 nm. The relative ATPase activity was calculated based on the ratio between the luminescence measured of the P-gp ATPase activity of each compound and the basal P-gp ATPase activity according to the following equation: Relative ATPase activity=Lumtreated−Lumuntreated/LumNa3VO4 − Lumuntreated
The effect of the tested compounds was evaluated according to the instructions of the manufacturer (Table 2).

[4] = system: HepG2 (hepatocellular carcinoma); assay: Cytotoxicity on HepG2 cells; format: cell-based, human; settings: ratio IC50 non-tumour cells / IC50 cancer cells

SMILES | Total Apoptotic Events (Early + Late, %) [1] [%] | Cell Death (%) Treated Sample-Untreated Sample [1] [%] | Early Apoptosis (%) Treated Sample-Untreated Sample [1] [%] | Late Apoptosis (%) Treated Sample-Untreated Sample [1] [%] | Apoptosis Quotient (%) [1] [%] | FSC (Forward Scatter Count) ([2]; 0.2 µM) | SSC (Side Scatter Count) ([2]; 0.2 µM) | FAR (fluorescence activity ratio) ([2]; 0.2 µM) | FSC (Forward Scatter Count) ([2]; 2 µM) | SSC (Side Scatter Count) ([2]; 2 µM) | FAR (fluorescence activity ratio) ([2]; 2 µM) | Effect on P-gp ATPase activity [3] | SI MRC-5/HepG2 [4] | melting point [°C]
CC(=O)C[Se]C(=O)c1ccc(F)c(Cl)c1 [K6, Se-(2-Oxopropyl) 3-Chloro-4-fluorobenzoselenoate] | 32.3 | 0.17 | 4.5 | 27.8 | 65.4 | 1996 | 873 | 1.48 | 1833 | 1043 | 29.4 and 29.42 | – | – | –
CC(=O)C[Se]C(=O)c1cccc(C(F)(F)F)c1 [K5, Se-(2-Oxopropyl) 3-(Trifluoromethyl)benzoselenoate] | 32.7 | 1.35 | 1.8 | 30.9 | 66.2 | 1982 | 1096 | 1.84 | 1949 | 1053 | 32.61 and 32.62 | milder stimulation | 1.3 | –
CC(=O)C[Se]C(=O)c1cc(F)c(F)cc1F [K8, Se-(2-Oxopropyl) 2,4,5-Trifluorobenzoselenoate] | 31.6 | 0.85 | 4.9 | 26.7 | 64.0 | 1804 | 853 | 3.38 | 1990 | 1131 | 36.09 | milder inhibition of the ATPase; also recorded: inhibitors of P-gp ATPase activity | 0.6 | –
CC(=O)C[Se]C(=O)c1ccccc1F [K2, Se-(2-Oxopropyl) 2-Fluorobenzoselenoate] | 34.2 | 0.95 | 0.3 | 33.9 | 69.2 | 1916 | 1061 | 1.41 | 1945 | 1156 | 37.35 | – | 1.1 | –
N#CC[Se]C(=O)c1cc(C(F)(F)F)cc(C(F)(F)F)c1 [N7, Se-(Cyanomethyl) 3,5-Bis(trifluoromethyl)benzoselenoate] | – | – | – | – | – | – | – | – | – | – | – | – | >6 * | 63 to 65
N#CC[Se]C(=O)c1cccc(F)c1 [N2, Se-(Cyanomethyl) 3-Fluorobenzoselenoate] | – | – | – | – | – | – | – | – | – | – | – | – | >6 * | –
N#CC[Se]C(=O)c1ccccc1C(F)(F)F [N4, Se-(Cyanomethyl) 2-(Trifluoromethyl)benzoselenoate] | – | – | – | – | – | – | – | – | – | – | – | – | >6 * | 65 to 67
CC(=O)C[Se]C(=O)c1ccc(C(C)(C)C)cc1 [K7, Se-(2-Oxopropyl) 4-(Tert-butyl)benzoselenoate] | 33.6 | 0.10 | 6.1 | 27.5 | 68.0 | 1889 | 938 | 1.53 | 1920 | 1045 | 40.38 and 40.39 | inhibited the ATPase activity; also recorded: inhibitors of P-gp ATPase activity | 1.0 | –
CC(=O)C[Se]C(=O)c1cccs1 [K1, Se-(2-Oxopropyl) Thiophene-2-carboselenoate] | 32.6 | 2.15 | 3.7 | 28.9 | 66.0 | 2144 | 989 | 1.37 | 1866 | 1067 | 45.73 | inhibited the ATPase activity; also recorded: inhibitors of P-gp ATPase activity | – | –
CC(=O)C[Se]C(=O)c1ccc(Br)cc1 [K3, Se-(2-Oxopropyl) 4-Bromobenzoselenoate] | 44.2 | 0.00 | 18.6 | 25.6 | 89.5 | 1706 | 982 | 3.99 | 2040 | 1031 | 39.17 | stimulated the P-gp ATPase with a comparable intensity to the reference verapamil | – | –
N#CC[Se]C(=O)c1ccc(Br)cc1 [N3, Se-(Cyanomethyl) 4-Bromobenzoselenoate] | – | – | – | – | – | – | – | – | – | – | – | – | >6 * | 105 to 107
CC(=O)C[Se]C(=O)c1ccccc1C(F)(F)F [K4, Se-(2-Oxopropyl) 2-(Trifluoromethyl)benzoselenoate] | 19.5 | 5.95 | 3.4 | 16.1 | 39.5 | 1808 | 861 | 1.76 | 1830 | 1008 | 4.99 | – | – | –
